From patent US20230414506A1, “PEPTIDE FORMULATIONS AND METHODS OF USE” (REALTA LIFE SCIENCES, INC., priority 2020, published 2023)
Ends that are not written are not given here. dPEG24 = C-terminal PEG24

Tests used:
[1] = type: physicochemical; details: 20% Intralipid, 4° C. for 48 hours
[2] = cited from earlier work
[3] = system: complement activity (human O sera and AB red blood cells); assay: ABO incompatibility CH50-type hemolytic assay of peptides formulated with different excipients; type: biochemical; details: for Inhibition of complement activation in the hemolytic assay: formulated in citrate, ascorbate and methionine, compared to histidine formulation
Experimental: To ascertain if these various excipients had any effect on the functional activity of PA-dPEG24 and PA-I8Sar, the formulated peptides were tested in a hemolytic assay to determine the ability of these molecules to inhibit complement activity. For hemolytic complement assays, human red blood cells (RBCs) from type AB donors were purified, washed and standardized to 1×10^9 cells/ml, as previously described. Human sera from type O donors at a 20% final concentration was combined with increasing concentrations of the formulated peptides and the volume was brought up to 0.15 ml with GVBS++ buffer and […] RBCs. The samples were spun at 3,000 rpm for 5 minutes and the supernatant was collected and read at 412 nm. Values are represented as a percent of the positive control, which consists of human O sera and AB red blood cells in GVBS++ buffer without peptide addition.

[4] = Gelling of citrate buffer formulation; type: physicochemical; details: 80 mg/ml, pH 6.8
Experimental: For the citrate buffer conditions, PA-dPEG24 and PA-I8Sar were formulated at a concentration of 80 mg/ml at pH 6.8. […] This gelling behavior was not observed for PA-I8Sar.

[5] = Aqueous solubility of the peptides; type: physicochemical

Substance | Appearance of Intralipid mixture on standing [1] | Aqueous solubility [2] | Complement inhibiting activity compared between excipients ([3]; ascorbate, citrate, histidine, methionine formulations) | Inhibition of complement activation in the hemolytic assay [3] | Gelling behavior [4] | Solubility studies, character of the peptide [5]
IALILEPICCQERAA [PA] | became paste-like |  |  |  |  | 
IALILEPICCQERAA-dPEG24 (cysteine pairing not given here) [PA-dPEG24, PIC1 peptide with a C-terminal monodisperse 24-mer PEGylated moiety] |  | highly soluble | slightly increased complement inhibiting activity compared to peptide formulated in methionine | able to maintain dose-dependent inhibition of complement activation | would start to gel if not kept on ice | 
IALILEP(Sar)CCQERAA [PA-I8Sar] |  |  |  | able to maintain dose-dependent inhibition of complement activation | not observed | amphipathic
